Values of other authors in US11220530B2, “Nanospheres of SEC14-like proteins and cognate ligands” (UNIVERSITÄT BERN, priority 2016, dated 2022).

Target: Cellular retinaldehyde-binding protein (CRALBP) (Bos taurus, UniProt P10123)
Conditions: for Kd: cited from Saari and Bredberg, J Biol Chem 1987, read-out: Kd (affinity for CRALBP)

Cellular retinaldehyde-binding protein (CRALBP), sequence (P10123 whole entry): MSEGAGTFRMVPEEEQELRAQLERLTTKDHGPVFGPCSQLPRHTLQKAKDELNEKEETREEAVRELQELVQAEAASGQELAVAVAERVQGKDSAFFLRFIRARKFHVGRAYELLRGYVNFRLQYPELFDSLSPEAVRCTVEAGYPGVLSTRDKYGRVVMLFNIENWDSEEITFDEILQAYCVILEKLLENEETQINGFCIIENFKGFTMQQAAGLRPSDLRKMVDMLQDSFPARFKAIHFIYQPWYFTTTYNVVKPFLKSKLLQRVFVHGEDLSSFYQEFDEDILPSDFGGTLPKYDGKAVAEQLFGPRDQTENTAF

Row | Kd [nM] | binding to CRALBP (same cited study) | SMILES
1 | 53 | – | CC1=C(/C=C/C(C)=C\C=C\C(C)=C\C=O)C(C)(C)CCC1 [9-cis-retinal]
2 | 20 | – | CC1=C(/C=C/C(C)=C/C=C/C(C)=C/C=O)C(C)(C)CCC1 [11-cis-retinal]
3 | 60 | – | CC1=C(/C=C/C(C)=C/C=C\C(C)=C\CO)C(C)(C)CCC1 [11-cis-retinol]
4 | – | does not bind | CC1=C(/C=C/C(C)=C/C=C/C(C)=C/C=O)C(C)(C)CCC1 [13-cis]
